Consider 3 molecules from patent US20150202181A1, “Method of and compounds for the reduction of alcoholic hangover” (priority 2014, published 2015).

Molecules are shown by their SMILES. Entries after “also recorded” stand apart in the source; their conditions may differ. A value given as a limit tells only on which side of the number the result lay.

One data set has as its system rodents. Conditions: cited from earlier work.
Data set [1] concerns acetaldehyde toxicity in rodents. Conditions: cited from earlier work.
The test system of the next data set is aldehyde dehydrogenase. Conditions: humans; cited from earlier work.
For data set [2] the following is noted: chronic dosing for two years; cited from earlier work.
In the next data set the test system is humans. Conditions: cited from earlier work.
Data set [3] concerns alcoholic hangover symptoms. Put plainly: Open-label and dose-finding studies in humans drinking alcoholic beverages.
For data set [4] the following is noted: after oral administration; cited from earlier work.
The conditions of data set [5]: NAC compared with ALA; cited from earlier work.

For the molecule `O=C(O)CCCC[C@@H]1CCSS1` [ALA, (R)-(+)-lipoic acid], the LD50 (commonly the dose at which mortality reaches 50%) with rodents is reported as > 2000 mg/kg. For the same molecule, in data set [1], the “Protective effect against acetaldehyde toxicity” value is “same effect”. Besides, the “Effect on aldehyde dehydrogenase activity” value in the data set with aldehyde dehydrogenase is listed as “increasing aldehyde dehydrogenase activity”. Further, the No-observed-effect level in data set [2] is recorded as 60 mg/kg/day. Besides, the Tolerability result in the data set on humans (diabetics given 600 mg/day for four years) is recorded as “well-tolerated”. The “Doses required to decrease alcohol hangover symptoms as monotherapy, compared with the combination” value in data set [3] was “much greater doses”. In data set [3] (monotherapy, ingested prior to imbibing alcoholic beverages), the “Dose that must be ingested for any noticeable reduction of alcohol hangover symptoms” value is “at least 200 mg”.
Consider `N[C@@H](CS)C(=O)O` [L-cysteine], for which the Oral absorption entry in data set [4] was “not well-absorbed; also recorded: poorly absorbed”.
Take `CC(=O)N[C@@H](CS)C(=O)O` [NAC, N-acetyl-L-cysteine]: the “LD50 (in words)” value in the data set with rodents is reported as “very high”. Further, the “Protective effect against acetaldehyde toxicity” value in data set [1] is “robust protective effects”. Also, in data set [5], the “Relative solubility (water versus fat)” value is recorded as “more water soluble”. The “Outcome of high exposure” value with humans (human child, 8480 mg/kg over 72 hours) is given as “survived with minor liver dysfunction”. The “Doses required to decrease alcohol hangover symptoms as monotherapy, compared with the combination” value in data set [3] was “much greater doses”.
